# Values quoted from earlier work as cited in patent US6656217B1, “Medical device coated with a polymer containing a nitric oxide releasing organometallic nitrosyl compound useful for the prevention of platelet aggregation” (NovoVascular, Inc., priority 1996, dated 2003).
# Tested on: platelet aggregation
compound,measurement,value
[Cl][Ru]([Cl])[Cl].[N-]=O [ruthenium nitrosyl trichioride],inhibition of platelet aggregation by nitric oxide generation from light activation,failed to inhibit platelet aggregation
